Measurements as given in the NIST ThermoML archive (doi:10.1016/j.fluid.2012.10.015).
Numbers after ± are expanded uncertainties.

Assays:
[1] = Liquid; for mass density: 101.33 kPa, Vibrating tube method; for vapor or sublimation pressure: Closed cell (Static) method
[2] = refractive index (Na D-line) (dimensionless); conditions: 298.15 K; 101.33 kPa; Liquid; Standard Abbe refractometry

SMILES | mass density ([1]; 298.15 K) [kg/m3] | vapor or sublimation pressure ([1]; 298.15 K) [kPa] | vapor or sublimation pressure ([1]; 308.15 K) [kPa] | vapor or sublimation pressure ([1]; 318.15 K) [kPa] | refractive index [2]
CC[N+](=O)[O-] [nitroethane] | 1044.21 ± 2.3 | 2.95 ± 0.05 | 4.69 ± 0.06 | 7.24 ± 0.07 | 1.38951 ± 0.00071
CCCCCl [1-chlorobutane] | 881.172 ± 2.2 | 13.72 ± 0.15 | 20.66 ± 0.19 | 31.46 ± 0.23 | 1.39953 ± 0.00068
CCCCCCl [1-chloropentane] | 877.089 ± 2.2 | 4.24 ± 0.07 | 7.09 ± 0.08 | 10.91 ± 0.09 | 1.41015 ± 0.00068
C[N+](=O)[O-] [nitromethane] | 1130.87 ± 2.3 | 4.83 ± 0.07 | 7.5 ± 0.09 | 12.57 ± 0.11 | 1.37956 ± 0.00072
